According to patent US20250017964A1, “ENGINEERING OR INDUCING PDGF AND/OR PDGFR SIGNALING TO ENHANCE NK CELL THERAPY” (City of Hope, priority 2021, published 2025):

System: NOD/SCID/IL-2rg (NSG) mice
Assay: PDGF-D injection after NK cell adoptive transfer into NSG mice, annexin V and Ki-67
Conditions: in vivo, PDGF-D 1 μg per mouse i.v. daily for 3 days
Description: FIGS. 6A-6M. IL-15 maintains NK cell survival through a PDGF-D-PDGFRβ autocrine pathway. (A) 1×10^5 primary NK cells were cultured in vitro for 7 days in the presence of IL-15 (10 ng/ml) and PDGF-D (50 ng/ml). Cells were counted on days 3, 5, and 7 (n=3). (B) 1×10^5 primary NK cells were cultured in vitro for 7 days in the presence of IL-15 (10 ng/ml) and anti-PDGF-D (10 βg/ml) or control IgG (10 μg/ml). Cells were counted on days 3, 5, and 7 (n=3). […] The cells were counted by trypan exclusion assay on days 3, 5, and 7 (n=3). (D) 1×10^5 primary NK cells were cultured in vitro for 7 days in the presence of IL-15 (10 ng/ml) and PDGF-D (50 ng/ml) as well as anti-PDGFRβ (10 μg/ml). Cells were counted by trypan exclusion assay on days 3, 5, and 7 (n=3). (E) 1×10^5 primary NK cells were cultured in vitro for 7 days in the presence of IL-15 (10 ng/ml) and PDGF-D (50 ng/ml) as well as anti-NKp44 (10 μg/ml). Cells were counted by trypan exclusion assay on days 3, 5, and 7 (n=3). (F-I) Primary NK cells were cultured in the presence of IL-15 (10 ng/ml) and PDGF-D (50 ng/ml) as well as anti-NKp44 (10 μg/ml) or anti-PDGFRβ (10 Kg/ml) for 48 h. The cultured NK cells were then harvested for immunoblotting to determine protein levels of BCL-2, BCL-XL, and MCL-1 (n=3). […] Cell apoptosis and proliferation were analyzed by annexin V staining (J) and Ki-67 staining (K), respectively. […]

PDGF-D: recombinant human PDGF-DD (1159-SB-025), R&D Systems
NK cell proliferation (Ki67): did not affect NK cell proliferation | apoptosis of PDGFRβ^+ NK cells (annexin V) (peripheral blood): inhibited apoptosis
